# Structures can show the parent of a compound that is named as a salt.
# Test system: MTT (mouse pheochromocytoma)
# Assay: IC50 of cell viability (ATP content)
# Conditions: (24 or 48 h)
# Procedure, shortened: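 The IC50 was fitted with a four-parameter logistic equation to normalised CellTiter-Glo ATP luminescence from MTT mouse pheochromocytoma cells. These cells, in white 1536-well plates, had been treated for 24 or 48 hrs with library compounds at 8 final concentrations between 0.5 nM and 46 µM, and luminescence was read after 15 minutes. Positive-control wells served as 100% and DMSO wells as 0%.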
row,Compound,IC50 of cell viability
1,CN1[C@@H](CC(=O)c2ccccc2)CCC[C@H]1C[C@H](O)c1ccccc1 [LOBELINE],> 46 µM
2,O=C([O-])c1ccccc1Nc1cc(Cl)ccc1C(=O)[O-] [LOBENZARIT DISODIUM],> 46 µM
3,O=NN(CCCl)C(=O)NC1CCCCC1 [LOMUSTINE],> 46 µM
4,Cc1cccc(C)c1OCC(=O)N[C@@H](Cc1ccccc1)[C@@H](O)C[C@H](Cc1ccccc1)NC(=O)[C@H](C(C)C)N1CCCNC1=O [LOPINAVIR],> 46 µM
5,CCOC(=O)N1CCC(=C2c3ccc(Cl)cc3CCc3cccnc32)CC1 [LORATADINE],> 46 µM
6,CCCCCN(CCCCC)C(=O)C(CCC(=O)[O-])NC(=O)c1ccc(Cl)c(Cl)c1.[Na+] (stereo not given) [LORGLUMIDE SODIUM],> 46 µM
7,CCCCc1nc(Cl)c(CO)n1Cc1ccc(-c2ccccc2-c2nnn[nH]2)cc1 [LOSARTAN],> 46 µM
8,N\C1=N\C2=C(N(CC=C)C(=O)N2C3OC(CO)C(O)C3O)/C(=O)N1 (stereo not given) [LOXORIBINUM],> 46 µM
9,N#C/C(=C1/SC[C@@H](c2ccc(Cl)cc2Cl)S1)n1ccnc1 [LULICONAZOLE],> 46 µM
10,CCCCN(CCCC)CC(O)c1cc(Cl)cc2c1-c1ccc(Cl)cc1/C2=C/c1ccc(Cl)cc1 (stereo not given) [LUMEFANTRINE],> 46 µM
11,CC1=C[C@@H](O)CC(C)(C)[C@@H]1/C=C/C(C)=C/C=C/C(C)=C/C=C/C=C(C)/C=C/C=C(C)/C=C/C1=C(C)C[C@H](O)CC1(C)C [LUTEIN],> 46 µM
12,"CCCN1CCC[C@@H]2Cc3nc(N)ncc3C[C@H]21 [LY-163,502]",> 46 µM
13,CC(C)=CCC/C(C)=C/C=C/C(C)=C/C=C/C(C)=C/C=C/C=C(C)/C=C/C=C(C)/C=C/C=C(\C)CCC=C(C)C [LYCOPENE],> 46 µM
14,C[C@@H](CCc1ccccc1)NC[C@H](O)c1ccc(O)c(C(N)=O)c1 [Labetalol hydrochloride],> 46 µM
15,CCOC(=O)C1=C(C)NC(C)=C(C(=O)OCC)C1c1ccccc1/C=C\C(=O)OC(C)(C)C [Lacidipine],> 46 µM
16,CC(O)C(=O)O (stereo not given) [Lactic acid],> 46 µM
17,OC[C@@H](O)C(O[C@@H]1O[C@@H](CO)[C@H](O)[C@H](O)[C@H]1O)[C@H](O)[C@@H](O)CO (stereo not given in full) [Lactitol],> 46 µM
18,O=C(O)[C@@H](O)[C@@H](O)[C@@H](O[C@@H]1O[C@@H](CO)[C@@H](O)[C@@H](O)[C@H]1O)[C@@H](O)CO [Lactobionic acid],> 46 µM
19,Nc1ccn([C@@H]2CS[C@H](CO)O2)c(=O)n1 [Lamivudine],> 46 µM
20,Nc1nnc(-c2cccc(Cl)c2Cl)c(N)n1 [Lamotrigine],> 46 µM
21,CC(=O)OC1CC(OC2C(O)CC(OC3C(O)CC(O[C@H]4CC[C@]5(C)C6CC[C@]7(C)[C@@H](C8=CC(=O)OC8)[C@@H](O)C[C@]7(O)[C@@H]6CC[C@@H]5C4)OC3C)OC2C)OC(C)C1OC1OC(CO)C(O)C(O)C1O (stereo not given in full) [Lanatoside B],> 46 µM
22,CC1(C)OC[C@@H](COC(=O)CCc2ccc(OC[C@@H](O)CNCCNC(=O)N3CCOCC3)cc2)O1 [Landiolol Hydrochloride],> 46 µM
23,CC1(C)OC[C@@H](COC(=O)CCc2ccc(OC[C@@H](O)CNCCNC(=O)N3CCOCC3)cc2)O1 [Landiolol],> 46 µM
24,Cc1c(OCC(F)(F)F)ccnc1C[S+]([O-])c1nc2ccccc2[nH]1 (stereo not given) [Lansoprazole],> 46 µM
25,Cc1oncc1C(=O)Nc1ccc(C(F)(F)F)cc1 [Leflunomide],> 46 µM
26,O=C(CCCN1CCC(C(=O)c2ccc(F)cc2)CC1)c1ccc(F)cc1 [Lenperone],> 46 µM
27,N#Cc1ccc(C(c2ccc(C#N)cc2)n2cncn2)cc1 [Letrozole],> 46 µM
28,CCNC(=O)[C@H]1CCCN1C(=O)[C@H](CCCNC(=N)N)NC(=O)[C@H](CC(C)C)NC(=O)[C@H](CC(C)C)NC(=O)[C@@H](Cc1ccc(O)cc1)NC(=O)[C@H](CO)NC(=O)[C@@H](Cc1c[nH]c2ccccc12)NC(=O)[C@H](Cc1c[nH]cn1)NC(=O)[C@@H]1CCC(=O)N1 [Leuprolide acetate salt],> 46 µM
29,CC1(C)Oc2ccc(C#N)cc2[C@@H](N2CCCC2=O)[C@@H]1O [Levcromakalim],> 46 µM
30,CCCCN1CCCC[C@H]1C(=O)Nc1c(C)cccc1C [Levobupivacaine hydrochloride],> 46 µM

# — the supplement of paper PMC3974653
